According to publication PMC12117998, “First Steps toward the Design of Peptides that Influence the Intracellular Palmitoylation Machinery” (Chembiochem, 2025):
No end group written: not given here.

Experiments:
HFF‐1 cells [1] = test: Cell viability assay (resazurin); assay type: cell-based, human; details: HFF‐1, 24 h, CF‐labeled peptides, n = 3 (Figure 3C)
Procedure: (§1) HeLa (13,000), MDA‐MB‐231 (26,000), HFF‐1 (16,000) cells, mEGFP‐HRas (18,000), and SW480 and SW620 (15,000) were seeded into a 96‐well plate. Cells were treated with suitable peptide concentrations diluted in the corresponding serum‐free culture medium. After 24 h incubation under standard growth conditions, the cells were washed once with PBS. The positive control was treated for 10 min with 70% EtOH. To test the viability, cells were treated with a resazurin solution (In Vitro Toxicology Assay Kit, resazurin based, Sigma) and incubated for a further 1–2 h. The product resorufin was measured at 595 nm (λex = 550 nm) on an infinite M200 plate reader (Tecan) and normalized to the untreated negative control cells.

HeLa cells [2] = test: Cell viability assay (resazurin); assay type: cell-based; details: 24 h; for cytotoxicity (cell viability): CF‐labeled peptides, n = 3 (Figure 3A); for concentration up to which peptide is not toxic (cell viability): unlabeled peptides in serum-free medium, untreated control = 100%, n = 3 (Figure 2A)
Procedure: as §1

MDA‐MB‐231 [3] = test: Cell viability assay (resazurin); assay type: cell-based; details: MDA‐MB‐231, 24 h, CF‐labeled peptides, n = 3 (Figure 3B)
Procedure: as §1

human 6His‐ZDHHC7 = target: T1, human 6His‐ZDHHC7 (Homo sapiens, UniProt Q9NXF8); test: In vitro palmitoylation assay (LC‐MS); assay type: biochemical; details: 50 μM CF‐labeled peptide, 37 °C, LC‐MS (Figure 4); for palmitoylation in presence of ZDHHC7: 100 nM ZDHHC7, 100 μM palmitoyl‐CoA, pH 7.0, 2 h; for palmitoylation in absence of ZDHHC7 (auto‐palmitoylation): 100 μM palmitoyl‐CoA, no ZDHHC7, pH 7.0, 2 h
T1 construct: 6His; purchased Proteintech
T1 sequence (Q9NXF8 1-308): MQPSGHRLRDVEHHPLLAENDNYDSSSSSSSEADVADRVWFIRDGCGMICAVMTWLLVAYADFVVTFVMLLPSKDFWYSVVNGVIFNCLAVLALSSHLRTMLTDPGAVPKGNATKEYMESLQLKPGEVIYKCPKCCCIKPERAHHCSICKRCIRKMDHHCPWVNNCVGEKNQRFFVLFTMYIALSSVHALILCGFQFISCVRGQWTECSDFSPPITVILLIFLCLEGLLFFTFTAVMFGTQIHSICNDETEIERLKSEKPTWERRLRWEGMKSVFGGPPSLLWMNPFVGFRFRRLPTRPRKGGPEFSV
Procedure: The 50 μM CF‐labeled peptides were incubated with 100 nM human 6His‐ZDHHC7 (Proteintech) and 100 μM palmitoyl‐CoA (Santa Cruz Biotechnology) in reaction buffer (50 mM HEPES, 150 mM NaCl, 1 mM EDTA, 1 mM (tris(2‐carboxyethyl)phosphine) (TCEP), 0.3 mM DDM, pH 7.0) for 2 h at 37 °C. Control reactions without ZDHHC7 or palm‐CoA were incubated with the appropriate volume of reaction buffer. Afterward, the reaction was centrifuged for 5 min at 13000 rpm. The precipitate was dissolved in DMSO/ACN (3:2, v/v). To enrich the peptide from the supernatant, C8 ZipTips were used. All samples were analyzed on the LC MS‐8060 triple quadrupole ESI‐MS (Shimadzu). The fluorescence intensity (λex = 493 nm, λem = 517 nm) of the samples was measured on an EC 160/2 NUCLEODUR 300‐5 C18 ec column using linear gradients from 20% to 70 % ACN in ddH2O + 0.1% FA over 7 min.

HeLa cells [4] = test: Cellular uptake by flow cytometry; assay type: cell-based; details: 30 min, serum-free medium, 37 °C, flow cytometry
Procedure: (§2) HeLa (90,000), MDA‐MB‐231 (120,000), and HFF‐1 (125,000) cells were seeded into a 24‐well plate. Cells were treated with the desired concentration of CF‐labeled peptide diluted in the appropriate serum‐free medium for 30 min at 37 °C and 5% CO2. Afterward, cells were washed once with PBS, detached from the plate using indicator‐free trypsin/EDTA and resuspended in indicator‐free culture medium. The cell mixture was measured on the Guava easyCyte flow cytometer (Merck) using the GRN‐B (520/30) detector.
CMA was synthesized and kindly provided by Azizi et al.^[ [33] ^] Cells were either treated with 20 μM CMA diluted in serum‐free media or 0.1% DMSO diluted in serum‐free media for 6 h at 37 °C with 5% CO2. Next, cells were washed once with serum‐free medium and 5 μM CF‐labeled peptides diluted in serum‐free medium were incubated for 30 min. Control cells were only treated with dimethylsulfoxide (DMSO) or 20 μM CMA.
For the preincubation assay, cells were either treated with 5 μM DC‐2 diluted in serum‐free medium or only serum‐free medium for 30 min at 37 °C and 5% CO2. Afterward, cells were washed once with serum‐free medium and treated with 5 μM CF‐labeled DC‐2 for 30 min at 37 °C and 5% CO2.
To block cell surface thiols, cells were incubated with either serum‐free medium or 1.2 mM 5,5′‐dithiobis‐(2‐nitrobenzoic acid) (Ellman's reagent, DTNB) diluted in serum‐free medium for 5 min. Next, untreated cells were treated with 1 μM of CF‐labeled DC‐2 or DC‐2dis diluted in serum‐free medium and DTNB‐pretreated cells with 1 μM of CF‐labeled DC‐2 or DC‐2dis and 1.2 mM DTNB in serum‐free medium for 30 min at 37 °C and 5% CO2 as described by Aubry et al.^[ [47] ^]

MCF‐10 A breast spheroid = test: Confocal time‐lapse imaging of spheroids; assay type: cell-based, human; details: 10‐day‐old MCF‐10 A spheroids, 10 μM CF‐labeled peptide, imaged every 45 s for 20 min, n ≥ 2 (Figure 7)
Procedure: Spheroids from single MCF10‐A cells were generated for 10 days as described in ref. [66]. For further analyses, spheroids were isolated from EHS matrix through incubation in 2 mL ice‐cold cell recovery solution (BD Biosciences) for 30 min (4 °C). Next, spheroids were washed with fresh EGF‐free medium and individually picked under a stereo microscope for seeding onto 35 mm cell culture dishes with microscopic glass bottoms (Cover Slip, 24 × 24 mm, #1.5 HP, Menzel‐Gläser). Spheroids adhered to glass substrates for 15 min (RT) and were subsequently covered with 0.9 mL fresh EGF‐free growth medium.
Live‐cell imaging was performed at 37 °C and 5% CO2 (cell incubator XL, Zeiss, Germany) with an inverse confocal laser scanning microscope (LSM880 with Airyscan detector) that used a 40x LD C‐Apochromat water immersion objective (NA 1.1, Zeiss). Before addition of peptides, control images were taken. Subsequently, peptide was added to a final concentration of 10 μM and spheroids immediately imaged every 45 s for 20 min. The observed plane was at the equatorial plane of a spheroid, where the diameter was largest. Images were taken with Fast Airyscan and subsequent processing using the ZEN 2.3 black software (Zeiss). Z‐stacks were taken right after the time series in 1 μm steps with the same microscopic settings.

MDA‐MB‐231 [5] = test: Cellular uptake by flow cytometry; assay type: cell-based; details: MDA‐MB‐231, 30 min, 5 μM CF‐labeled peptides, serum-free medium, 37 °C, n ≥ 3 (Figure 3E)
Procedure: as §2

HeLa cells [6] = test: Live‐cell fluorescence imaging of peptide uptake; assay type: cell-based; details: 30 min, 5 μM CF‐labeled peptides, confocal laser scanning microscopy (Figure 3G)
Procedure: HeLa (40,000), MDA‐MB‐231 (30,000), or HFF1 (55,000) cells were seeded into an 8‐well ibidi. Cells were treated for 30 min with 5 μM of CF‐labeled peptide diluted in the appropriate serum‐free media. The cell nuclei were stained with the Hoechst 33342 nuclear dye for the last 10 min of the total incubation time. Afterward, cells were washed three to four times using serum‐free medium and finally, medium containing FBS was added for the microscopy. Live fluorescence microscopy analyses were performed on the LSM 980 with Airyscan 2 Inverse Confocal Laser Scanning Microscope (Carl Zeiss) on a 63X Plan‐Apochromat oil objective (NA 1.4, Zeiss) at 37 °C and 5% CO2 or on the BZ‐X810 (Keyence) using a 60X Plan‐Apochromat oil objective (NA 1.4, Keyence). Images were cropped and processed using Fiji.
Hela cells (15,000) were seeded into a 96-well plate. Cells were treated with suitable peptide concentrations diluted in the corresponding serum-free culture medium. After 1 h peptide incubation under standard growth conditions, the positive control was either directly treated with lysis solution or the supernatant was exchanged for serum-free culture medium and the plate was incubated for further 5 h under growing conditions. The CytoTox-ONE™ Reagent was added and incubated at RT for 10 minutes. Finally, the Stop Solution was added and the fluorescence was measured at 595 nm (λex = 550 nm) on an infinite M200 plate reader (Tecan) and normalized to the positive control cells.
Red blood cells (RBCs) were washed three times in PBS by centrifug ing at 4 °C and 3,000 x g for 5 min and diluted to 5% in PBS. The desired peptide concentrations diluted in PBS were added into a 96-well plate. Next, 5% RBCs in PBS were added into the wells and incubated for 24 h at 37 °C and 5% CO2. As a positive control, RBCs were mixed with 10% Triton X-100 in PBS. […] Lastly, the absorption (λ=560 nm) was measured on the infinite M200 plate reader (Tecan). For the evaluation, the measured absorption of the Triton-X-100 treatment was set to a hemolysis rate […]

HFF‐1 cells [7] = test: Cellular uptake by flow cytometry; assay type: cell-based, human; details: HFF‐1, 30 min, 5 μM CF‐labeled peptides, serum-free medium, 37 °C, n ≥ 3 (Figure 3F)
Procedure: as §2

[8] = 5 μM CF‐labeled peptides, n ≥ 3 (Figure 3D, 5C)
[9] = 10 μM CF‐labeled peptides, n = 3 (Figure 2B)

| Substance | cytotoxicity (cell viability) (HFF‐1 cells [1]) | cytotoxicity (cell viability) (HeLa cells [2]) | concentration up to which peptide is not toxic (cell viability) (HeLa cells [2]) [µM] | cytotoxicity (cell viability) (MDA‐MB‐231 [3]) | palmitoylation in presence of ZDHHC7 (human 6His‐ZDHHC7) | palmitoylation in absence of ZDHHC7 (auto‐palmitoylation) (human 6His‐ZDHHC7) | cellular uptake (in words) (HeLa cells [4]; [8]) | cellular uptake (in words) (HeLa cells [4]; [9]) | infiltration of basement membrane (BM)‐covered spheroids (MCF‐10 A breast spheroid) | cellular uptake (in words) (MDA‐MB‐231 [5]) | intracellular uptake pattern (HeLa cells [6]) | cellular uptake (in words) (HFF‐1 cells [7]) |
| --- | --- | --- | --- | --- | --- | --- | --- | --- | --- | --- | --- | --- |
| GLRKRLRKFRNK-NH2 [sC18*, cell‐penetrating peptide (CPP) sC18*, origin CAP18, control peptide, reference compound] | not toxic | not toxic | > 100 | not toxic |  |  |  |  |  |  |  |  |
| GLRKRLRKFRNKEFDHHCPW-NH2 [DC‐4, CPP sC18* fused to the DHHC motif derived from ZDHHC5] |  |  |  |  | only a minor peak of palmitoylated DC‐4 | no auto‐palmitoylation | overall weaker uptake | internalized to less extent |  |  |  |  |
| GLRKRLRKFRNKKMDHHAPW-NH2 [DA‐1, control peptide in which the cysteine of the DHHC motif of DC‐2 was exchanged by an alanine] | not toxic | not toxic | > 100 | not toxic |  |  |  |  | did not further enter cells of the spheroid |  |  |  |
| GLRKRLRKFRNKRMDHHCPW-NH2 [DC‐11, CPP sC18* fused to the DHHC motif derived from ZDHHC21] |  |  |  |  | palmitoylated | auto‐palmitoylation | internalized to a higher extent compared to DC‐4 | highest uptake |  | internalized to a higher extent compared to DC‐4 | diffuse cytosolic pattern | internalized to a higher extent compared to DC‐4 |
